Measured values as given in publication PMC7180948, “New Insights into 4-Anilinoquinazolines as Inhibitors of Cardiac Troponin I–Interacting Kinase (TNNi3K)” (Molecules, 2020).
One block for each compound: values may come before it.

Columns and labels:
[1] = target: T1, MEK5 (Homo sapiens, UniProt Q13163); assay: KINOMEscan at […], single concentration; type: binding
T1 construct: gene MAP2K5

[2] = target: T2, TIE2 (Homo sapiens, UniProt Q02763); assay: biochemical; parameters: KINOMEscan competition binding panel (Eurofins DiscoverX), single concentration, percent inhibition; settings: read-out: 15 at 1 µM % inhibition
T2 construct: gene TEK
Procedure: (§1) KinomeScan® Assay on 7 and 15 was performed as previously described by EuroFins DiscoverX [24]. GSK114 (7) and 15 were submitted for a KINOMEscan® assay to explore the selectivity profile across >400 human kinases at a compound concentration of 1 µM. […] GSK114 (7) is a narrow-spectrum TNNi3K inhibitor but has some potent off-targets including GAK which has been previously reported for this chemotype. […] If utilized together this set of compounds could be useful to investigate TNNi3K biology.

[3] = target: T3, CAMK1B (Homo sapiens, UniProt Q6P2M8); assay: biochemical; parameters: KINOMEscan competition binding panel (Eurofins DiscoverX), single concentration, percent inhibition; settings: read-out: 15 at 1 µM % inhibition
T3 construct: gene PNCK
Procedure: as §1

[4] = target: T4, IKK-epsilon (Homo sapiens, UniProt Q14164); assay: biochemical; parameters: KINOMEscan competition binding panel (Eurofins DiscoverX), single concentration, percent inhibition; settings: read-out: 15 at 1 µM % inhibition
T4 construct: gene IKBKE
Procedure: as §1

[5] = target: T5, DRAK1 (Homo sapiens, UniProt Q9UEE5); assay: biochemical; parameters: KINOMEscan competition binding panel (Eurofins DiscoverX), single concentration, percent inhibition; settings: read-out: 15 at 1 µM % inhibition
T5 construct: gene STK17A
Procedure: as §1

[6] = target: T6, ABL1(E255K)-phosphorylated (Homo sapiens, UniProt P00519, E255K); assay: biochemical; parameters: KINOMEscan competition binding panel (Eurofins DiscoverX), single concentration, percent inhibition; settings: read-out: 15 at 1 µM % inhibition
T6 construct: phosphorylated
Procedure: as §1

[7] = target: GRK7 (Homo sapiens, UniProt Q8WTQ7); assay: biochemical; parameters: KINOMEscan competition binding panel (Eurofins DiscoverX), single concentration, percent inhibition; settings: read-out: 15 at 1 µM % inhibition
Procedure: as §1

[8] = target: T7, MEK1 (Homo sapiens, UniProt Q02750); assay: biochemical; parameters: KINOMEscan competition binding panel (Eurofins DiscoverX), single concentration, percent inhibition; settings: read-out: 15 at 1 µM % inhibition
T7 construct: gene MAP2K1
Procedure: as §1

[9] = target: T8, YANK3 (Homo sapiens, UniProt Q86UX6); assay: biochemical; parameters: KINOMEscan competition binding panel (Eurofins DiscoverX), single concentration, percent inhibition; settings: read-out: 15 at 1 µM % inhibition
T8 construct: gene STK32C
Procedure: as §1

[10] = target: PIK3CA(Q546K) (Homo sapiens, UniProt P42336, Q546K); assay: biochemical; parameters: KINOMEscan competition binding panel (Eurofins DiscoverX), single concentration, percent inhibition; settings: read-out: 15 at 1 µM % inhibition
Procedure: as §1

[11] = target: NEK3 (Homo sapiens, UniProt P51956); assay: biochemical; parameters: KINOMEscan competition binding panel (Eurofins DiscoverX), single concentration, percent inhibition; settings: read-out: 15 at 1 µM % inhibition
Procedure: as §1

[12] = target: PIK3CA(E545A) (Homo sapiens, UniProt P42336, E545A); assay: biochemical; parameters: KINOMEscan competition binding panel (Eurofins DiscoverX), single concentration, percent inhibition; settings: read-out: 15 at 1 µM % inhibition
Procedure: as §1

[13] = target: PIK3C2B (Homo sapiens, UniProt O00750); assay: biochemical; parameters: KINOMEscan competition binding panel (Eurofins DiscoverX), single concentration, percent inhibition; settings: read-out: 15 at 1 µM % inhibition
Procedure: as §1

[14] = target: T9, PFTAIRE2 (Homo sapiens, UniProt Q96Q40); assay: biochemical; parameters: KINOMEscan competition binding panel (Eurofins DiscoverX), single concentration, percent inhibition; settings: read-out: 15 at 1 µM % inhibition
T9 construct: gene CDK15
Procedure: as §1

[15] = target: EPHA3 (Homo sapiens, UniProt P29320); assay: biochemical; parameters: KINOMEscan competition binding panel (Eurofins DiscoverX), single concentration, percent inhibition; settings: read-out: 15 at 1 µM % inhibition
Procedure: as §1

[16] = target: CSNK1D (Homo sapiens, UniProt P48730); assay: biochemical; parameters: KINOMEscan competition binding panel (Eurofins DiscoverX), single concentration, percent inhibition; settings: read-out: 15 at 1 µM % inhibition
Procedure: as §1

[17] = target: T10, ABL1(T315I)-nonphosphorylated (Homo sapiens, UniProt P00519, T315I); assay: biochemical; parameters: KINOMEscan competition binding panel (Eurofins DiscoverX), single concentration, percent inhibition; settings: read-out: 15 at 1 µM % inhibition
T10 construct: nonphosphorylated
Procedure: as §1

[18] = target: PAK4 (Homo sapiens, UniProt O96013); assay: biochemical; parameters: KINOMEscan competition binding panel (Eurofins DiscoverX), single concentration, percent inhibition; settings: read-out: 15 at 1 µM % inhibition
Procedure: as §1

[19] = target: PIK3CA(C420R) (Homo sapiens, UniProt P42336, C420R); assay: biochemical; parameters: KINOMEscan competition binding panel (Eurofins DiscoverX), single concentration, percent inhibition; settings: read-out: 15 at 1 µM % inhibition
Procedure: as §1

[20] = target: EPHB3 (Homo sapiens, UniProt P54753); assay: biochemical; parameters: KINOMEscan competition binding panel (Eurofins DiscoverX), single concentration, percent inhibition; settings: read-out: 15 at 1 µM % inhibition
Procedure: as §1

[21] = target: GAK (Homo sapiens, UniProt O14976); assay: biochemical; parameters: KINOMEscan competition binding panel (Eurofins DiscoverX), single concentration, percent inhibition; settings: read-out: 15 at 1 µM % inhibition
Procedure: as §1

[22] = target: TAOK2 (Homo sapiens, UniProt Q9UL54); assay: biochemical; parameters: KINOMEscan competition binding panel (Eurofins DiscoverX), single concentration, percent inhibition; settings: read-out: 15 at 1 µM % inhibition
Procedure: as §1

[23] = target: DDR2 (Homo sapiens, UniProt Q16832); assay: biochemical; parameters: KINOMEscan competition binding panel (Eurofins DiscoverX), single concentration, percent inhibition; settings: read-out: 15 at 1 µM % inhibition
Procedure: as §1

[24] = target: T11, JNK2 (Homo sapiens, UniProt P45984); assay: biochemical; parameters: KINOMEscan competition binding panel (Eurofins DiscoverX), single concentration, percent inhibition; settings: read-out: 15 at 1 µM % inhibition
T11 construct: gene MAPK9
Procedure: as §1

T1 sequence (Q13163 whole entry): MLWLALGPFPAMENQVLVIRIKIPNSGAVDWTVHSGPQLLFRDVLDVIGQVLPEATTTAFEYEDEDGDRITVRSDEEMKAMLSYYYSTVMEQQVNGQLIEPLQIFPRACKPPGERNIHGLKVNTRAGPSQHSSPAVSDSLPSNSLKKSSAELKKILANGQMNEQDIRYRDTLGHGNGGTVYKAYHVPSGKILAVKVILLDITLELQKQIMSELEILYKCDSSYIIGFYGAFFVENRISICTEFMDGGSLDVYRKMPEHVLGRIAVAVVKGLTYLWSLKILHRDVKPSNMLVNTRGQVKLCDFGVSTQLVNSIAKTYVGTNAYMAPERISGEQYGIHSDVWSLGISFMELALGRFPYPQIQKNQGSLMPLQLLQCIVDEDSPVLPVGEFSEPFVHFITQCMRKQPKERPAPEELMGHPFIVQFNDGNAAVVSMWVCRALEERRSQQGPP
Chain of PIK3CA(Q546K) (P42336 whole entry Q546K): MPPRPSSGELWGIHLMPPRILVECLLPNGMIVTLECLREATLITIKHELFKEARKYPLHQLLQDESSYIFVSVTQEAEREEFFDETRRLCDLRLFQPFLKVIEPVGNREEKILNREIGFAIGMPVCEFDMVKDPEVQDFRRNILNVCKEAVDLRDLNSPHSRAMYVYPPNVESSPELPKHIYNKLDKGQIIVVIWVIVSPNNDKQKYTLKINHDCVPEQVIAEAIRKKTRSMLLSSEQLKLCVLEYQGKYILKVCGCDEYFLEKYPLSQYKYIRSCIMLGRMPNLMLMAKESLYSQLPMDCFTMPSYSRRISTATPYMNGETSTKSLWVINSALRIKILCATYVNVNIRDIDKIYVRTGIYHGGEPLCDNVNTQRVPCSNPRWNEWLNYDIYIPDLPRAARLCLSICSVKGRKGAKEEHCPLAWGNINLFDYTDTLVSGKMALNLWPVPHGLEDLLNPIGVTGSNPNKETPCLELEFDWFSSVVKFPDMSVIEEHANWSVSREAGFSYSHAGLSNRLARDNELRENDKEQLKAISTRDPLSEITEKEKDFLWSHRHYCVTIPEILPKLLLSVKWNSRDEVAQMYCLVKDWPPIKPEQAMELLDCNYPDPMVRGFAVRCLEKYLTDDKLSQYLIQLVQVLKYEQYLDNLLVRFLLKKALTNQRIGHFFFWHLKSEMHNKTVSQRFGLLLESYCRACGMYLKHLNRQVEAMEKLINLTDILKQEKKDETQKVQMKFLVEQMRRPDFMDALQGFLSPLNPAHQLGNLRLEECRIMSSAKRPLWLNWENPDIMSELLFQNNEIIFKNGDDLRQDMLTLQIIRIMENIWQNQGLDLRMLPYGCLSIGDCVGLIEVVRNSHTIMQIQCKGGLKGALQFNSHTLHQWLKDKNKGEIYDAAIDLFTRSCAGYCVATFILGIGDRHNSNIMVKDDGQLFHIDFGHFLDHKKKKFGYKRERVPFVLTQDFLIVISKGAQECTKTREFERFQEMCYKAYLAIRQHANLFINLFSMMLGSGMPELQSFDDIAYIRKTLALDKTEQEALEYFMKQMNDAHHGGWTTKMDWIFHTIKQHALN
Chain of EPHA3 (P29320 whole entry): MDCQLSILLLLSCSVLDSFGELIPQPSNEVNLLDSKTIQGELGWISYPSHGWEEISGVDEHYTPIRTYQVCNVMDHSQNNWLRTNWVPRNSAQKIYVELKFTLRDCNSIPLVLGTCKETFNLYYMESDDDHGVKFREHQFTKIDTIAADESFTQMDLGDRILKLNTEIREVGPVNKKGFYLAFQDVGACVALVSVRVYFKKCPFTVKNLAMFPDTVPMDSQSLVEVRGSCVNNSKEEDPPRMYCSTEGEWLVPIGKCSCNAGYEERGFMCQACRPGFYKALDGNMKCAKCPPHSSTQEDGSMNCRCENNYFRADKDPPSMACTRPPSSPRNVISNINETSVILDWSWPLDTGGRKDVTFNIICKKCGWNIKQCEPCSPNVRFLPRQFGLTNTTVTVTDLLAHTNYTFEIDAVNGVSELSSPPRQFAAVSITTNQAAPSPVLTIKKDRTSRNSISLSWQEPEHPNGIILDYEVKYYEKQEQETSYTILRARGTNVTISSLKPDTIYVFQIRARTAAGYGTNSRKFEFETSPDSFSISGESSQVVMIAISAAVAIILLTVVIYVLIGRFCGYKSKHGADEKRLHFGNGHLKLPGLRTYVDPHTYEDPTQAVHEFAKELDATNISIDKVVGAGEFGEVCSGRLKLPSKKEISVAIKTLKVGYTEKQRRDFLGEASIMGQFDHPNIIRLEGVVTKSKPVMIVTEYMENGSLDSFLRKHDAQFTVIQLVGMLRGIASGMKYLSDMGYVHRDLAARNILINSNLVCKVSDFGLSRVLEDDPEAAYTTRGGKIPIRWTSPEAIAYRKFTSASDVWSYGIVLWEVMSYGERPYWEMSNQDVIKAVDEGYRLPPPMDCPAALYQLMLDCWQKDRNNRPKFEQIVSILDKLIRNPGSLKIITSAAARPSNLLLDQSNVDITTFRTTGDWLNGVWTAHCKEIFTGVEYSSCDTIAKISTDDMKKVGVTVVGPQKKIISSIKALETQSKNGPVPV
Chain of EPHB3 (P54753 whole entry): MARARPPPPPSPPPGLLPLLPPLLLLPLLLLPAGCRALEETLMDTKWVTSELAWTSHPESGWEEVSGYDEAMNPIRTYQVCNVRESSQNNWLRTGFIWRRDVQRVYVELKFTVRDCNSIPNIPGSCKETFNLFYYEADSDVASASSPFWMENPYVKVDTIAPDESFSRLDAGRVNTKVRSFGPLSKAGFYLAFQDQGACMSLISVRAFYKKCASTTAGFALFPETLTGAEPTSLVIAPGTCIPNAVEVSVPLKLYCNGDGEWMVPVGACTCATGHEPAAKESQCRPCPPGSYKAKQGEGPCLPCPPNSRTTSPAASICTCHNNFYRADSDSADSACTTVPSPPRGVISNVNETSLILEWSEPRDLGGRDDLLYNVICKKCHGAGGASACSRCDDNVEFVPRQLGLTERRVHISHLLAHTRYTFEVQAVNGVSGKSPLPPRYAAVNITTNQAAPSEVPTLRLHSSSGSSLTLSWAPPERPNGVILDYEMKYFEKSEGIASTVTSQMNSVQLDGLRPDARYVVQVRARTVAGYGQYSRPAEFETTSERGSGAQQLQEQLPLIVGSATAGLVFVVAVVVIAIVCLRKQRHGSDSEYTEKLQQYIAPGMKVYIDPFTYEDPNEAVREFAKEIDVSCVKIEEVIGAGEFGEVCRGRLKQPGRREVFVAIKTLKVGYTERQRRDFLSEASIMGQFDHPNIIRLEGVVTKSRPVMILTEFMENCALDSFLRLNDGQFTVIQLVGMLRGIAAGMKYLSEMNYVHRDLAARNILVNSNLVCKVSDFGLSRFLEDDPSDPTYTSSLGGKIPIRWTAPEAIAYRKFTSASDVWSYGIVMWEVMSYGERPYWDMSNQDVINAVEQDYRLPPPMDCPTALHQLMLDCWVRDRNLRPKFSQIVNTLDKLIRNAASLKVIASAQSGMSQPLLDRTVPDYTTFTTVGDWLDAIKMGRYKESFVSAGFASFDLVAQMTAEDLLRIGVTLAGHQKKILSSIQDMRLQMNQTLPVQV
T2 sequence (Q02763 whole entry): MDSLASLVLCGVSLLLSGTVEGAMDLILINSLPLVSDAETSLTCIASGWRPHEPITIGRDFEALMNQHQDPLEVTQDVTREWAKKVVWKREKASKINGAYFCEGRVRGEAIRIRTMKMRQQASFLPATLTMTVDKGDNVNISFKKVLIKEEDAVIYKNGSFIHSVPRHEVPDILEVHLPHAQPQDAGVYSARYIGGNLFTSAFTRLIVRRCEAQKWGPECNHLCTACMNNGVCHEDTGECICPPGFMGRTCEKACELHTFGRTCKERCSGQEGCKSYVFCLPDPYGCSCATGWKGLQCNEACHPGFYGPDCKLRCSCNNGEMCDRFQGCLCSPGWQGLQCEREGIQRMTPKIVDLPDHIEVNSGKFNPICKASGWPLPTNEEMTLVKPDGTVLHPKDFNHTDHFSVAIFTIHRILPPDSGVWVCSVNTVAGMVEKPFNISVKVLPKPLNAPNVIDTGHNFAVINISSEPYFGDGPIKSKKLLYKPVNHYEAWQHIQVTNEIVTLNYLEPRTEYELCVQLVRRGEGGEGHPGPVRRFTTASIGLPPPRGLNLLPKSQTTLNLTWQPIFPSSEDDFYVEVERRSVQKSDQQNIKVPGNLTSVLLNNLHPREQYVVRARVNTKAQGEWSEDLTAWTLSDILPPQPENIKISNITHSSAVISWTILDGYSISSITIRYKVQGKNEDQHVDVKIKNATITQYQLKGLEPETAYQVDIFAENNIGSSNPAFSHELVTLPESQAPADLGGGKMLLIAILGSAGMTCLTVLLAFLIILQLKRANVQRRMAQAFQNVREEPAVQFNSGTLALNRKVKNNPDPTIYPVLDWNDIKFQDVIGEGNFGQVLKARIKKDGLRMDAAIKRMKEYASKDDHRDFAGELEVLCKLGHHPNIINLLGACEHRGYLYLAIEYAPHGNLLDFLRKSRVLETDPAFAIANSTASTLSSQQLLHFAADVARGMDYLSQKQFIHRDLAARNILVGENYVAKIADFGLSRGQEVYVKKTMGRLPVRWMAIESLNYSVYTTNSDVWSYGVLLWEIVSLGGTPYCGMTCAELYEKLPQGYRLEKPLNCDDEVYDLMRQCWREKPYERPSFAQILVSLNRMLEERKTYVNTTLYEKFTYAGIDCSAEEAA
T11 sequence (P45984 whole entry): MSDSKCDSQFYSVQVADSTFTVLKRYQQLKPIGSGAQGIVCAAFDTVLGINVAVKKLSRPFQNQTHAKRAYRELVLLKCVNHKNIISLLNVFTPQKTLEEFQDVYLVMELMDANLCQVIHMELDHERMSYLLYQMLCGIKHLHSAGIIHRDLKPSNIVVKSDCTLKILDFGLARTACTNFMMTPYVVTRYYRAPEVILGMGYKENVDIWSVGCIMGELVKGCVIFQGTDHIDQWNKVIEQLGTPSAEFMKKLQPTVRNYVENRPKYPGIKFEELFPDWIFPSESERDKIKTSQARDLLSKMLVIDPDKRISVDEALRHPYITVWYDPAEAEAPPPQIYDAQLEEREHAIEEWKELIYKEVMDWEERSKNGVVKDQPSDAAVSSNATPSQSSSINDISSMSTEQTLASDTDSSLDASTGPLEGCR
Chain of PIK3CA(C420R) (P42336 whole entry C420R): as the sequence (P42336 whole entry Q546K) above, with C420R, K546Q counted along it

Compound: CNS(=O)(=O)c1ccc(N(C)C)c(Nc2ncnc3cc(OC)c(OC)cc23)c1 [compound 7, 3-((6,7-dimethoxyquinazolin-4-yl)amino)-4-(dimethylamino)-N-methylbenzenesulfonamide]
- inhibition at 1 µM [1]: 100%

- inhibition at 1 µM [2]: 6%
- inhibition at 1 µM [3]: 28%
- inhibition at 1 µM [4]: 0%
- inhibition at 1 µM [5]: 0%
- inhibition at 1 µM [6]: 4%
- inhibition at 1 µM [7]: 13%
- inhibition at 1 µM [8]: 18%
- inhibition at 1 µM [9]: 0%
- inhibition at 1 µM [10]: 37%
- inhibition at 1 µM [11]: 0%
- inhibition at 1 µM [12]: 1%
- inhibition at 1 µM [13]: 71%
- inhibition at 1 µM [14]: 5%
- inhibition at 1 µM [15]: 2%
- inhibition at 1 µM [16]: 0%
- inhibition at 1 µM [17]: 9%
- inhibition at 1 µM [18]: 0%
- inhibition at 1 µM [19]: 11%
- inhibition at 1 µM [20]: 0%
- inhibition at 1 µM [21]: 78%
- inhibition at 1 µM [22]: 15%
- inhibition at 1 µM [23]: 38%
- inhibition at 1 µM [24]: 4%
- inhibition at 1 µM [1]: 92%
Compound: CNS(=O)(=O)c1ccc(N(C)C)c(Nc2nc(C)nc3cc(OC)c(OC)cc23)c1 [compound 15, 3-((6,7-dimethoxy-2-methylquinazolin-4-yl)amino)-4-(dimethylamino)-N-methylbenzenesulfonamide]
